Test results published in the supplement of paper PMC10307832.

Legend:
Test in all cases: relative viability (nuclei count vs DMSO), 5 days (fraction); higher = more cells survive
NCI-H2347 = test system: NCI-H2347
In short: (§1)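 The day after seeding in 1536-well plates, lung cancer cell lines were treated by pin tool with a single drug, or with a fixed anchor-drug dose together with five library-drug doses (not always all listed) in √10 steps. After 5 days, a combined fix-and-stain solution (final 0.05% Triton X-100, 1% formaldehyde, 1 ug/ml Hoechst) was added. Nuclei counted on 4× images gave relative viability as treated counts over vehicle counts, reported as the median of duplicate plates.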

EKVX = test system: EKVX
In short: as §1

PC-3 [JPC-3] = test system: PC-3 [JPC-3]
In short: as §1

LOU-NH91 = test system: LOU-NH91
In short: as §1

NCI-H650 = test system: NCI-H650
In short: as §1

NCI-H838 = test system: NCI-H838
In short: as §1

IA-LM = test system: IA-LM
In short: as §1

SW 1573 = test system: SW 1573
In short: as §1

LCLC-97TM1 = test system: LCLC-97TM1
In short: as §1

LU99A = test system: LU99A
In short: as §1

NCI-H1650 = test system: NCI-H1650
In short: as §1

LC-2-ad = test system: LC-2-ad
In short: as §1

NCI-H1915 = test system: NCI-H1915
In short: as §1

NCI-H23 = test system: NCI-H23
In short: as §1

RERF-LC-KJ = test system: RERF-LC-KJ
In short: as §1

NCI-H1355 = test system: NCI-H1355
In short: as §1

NCI-H1993 = test system: NCI-H1993
In short: as §1

NCI-H1793 = test system: NCI-H1793
In short: as §1

BEN = test system: BEN
In short: as §1

NCI-H1666 = test system: NCI-H1666
In short: as §1

NCI-H460 = test system: NCI-H460
In short: as §1

A-427 = test system: A-427
In short: as §1

NCI-H520 = test system: NCI-H520
In short: as §1

NCI-H1648 = test system: NCI-H1648
In short: as §1

NCI-H2228 = test system: NCI-H2228
In short: as §1

`CCCCCCCCCCCC1=C(O)C(=O)C=C(O)C1=O` [Embelin] + O=C(c1cc(Cc2n[nH]c(=O)c3ccccc23)ccc1F)N1CCN(C(=O)C2CC2)CC1 [Olaparib] (partner 8 µM) was tested, and the relative viability (NCI-H2347; first compound 0.08 µM) was 0.596, the relative viability (NCI-H2347; first compound 0.8 µM) was 0.641 and the relative viability (NCI-H2347; first compound 2.53 µM) was 0.521. It also gave a relative viability (NCI-H2347; first compound 8 µM) of 0.68, a relative viability (EKVX; first compound 0.08 µM) of 0.816 and a relative viability (EKVX; first compound 0.8 µM) of 0.856. It also gave a relative viability (EKVX; first compound 2.53 µM) of 0.984, a relative viability (EKVX; first compound 8 µM) of 0.897 and a relative viability (PC-3 [JPC-3]; first compound 0.08 µM) of 1.12. The relative viability (PC-3 [JPC-3]; first compound 0.8 µM) was 1.17, the relative viability (PC-3 [JPC-3]; first compound 2.53 µM) was 1.17 and the relative viability (PC-3 [JPC-3]; first compound 8 µM) was 1.07. It also gave a relative viability (LOU-NH91; first compound 0.08 µM) of 0.931, a relative viability (LOU-NH91; first compound 0.8 µM) of 1.01 and a relative viability (LOU-NH91; first compound 2.53 µM) of 0.988. It also gave a relative viability (LOU-NH91; first compound 8 µM) of 0.924, a relative viability (NCI-H650; first compound 0.08 µM) of 0.385 and a relative viability (NCI-H650; first compound 0.8 µM) of 0.407. For the same molecule, the relative viability (NCI-H650; first compound 2.53 µM) was 0.371, the relative viability (NCI-H650; first compound 8 µM) was 0.381 and the relative viability (NCI-H838; first compound 0.08 µM) was 0.736. For the same molecule, the relative viability (NCI-H838; first compound 0.8 µM) was 0.83, the relative viability (NCI-H838; first compound 2.53 µM) was 0.883 and the relative viability (NCI-H838; first compound 8 µM) was 0.766. For the same molecule, the relative viability (IA-LM; first compound 0.08 µM) was 0.899, the relative viability (IA-LM; first compound 0.8 µM) was 0.894 and the relative viability (IA-LM; first compound 2.53 µM) was 0.847. It also gave a relative viability (IA-LM; first compound 8 µM) of 0.616, a relative viability (SW 1573; first compound 0.08 µM) of 0.545 and a relative viability (SW 1573; first compound 0.8 µM) of 0.561. The relative viability (SW 1573; first compound 2.53 µM) was 0.443, the relative viability (SW 1573; first compound 8 µM) was 0.47 and the relative viability (LCLC-97TM1; first compound 0.08 µM) was 0.38. The relative viability (LCLC-97TM1; first compound 0.8 µM) was 0.462, the relative viability (LCLC-97TM1; first compound 2.53 µM) was 0.445 and the relative viability (LCLC-97TM1; first compound 8 µM) was 0.45. For the same molecule, the relative viability (LU99A; first compound 0.08 µM) was 0.293, the relative viability (LU99A; first compound 0.8 µM) was 0.218 and the relative viability (LU99A; first compound 2.53 µM) was 0.281. The relative viability (LU99A; first compound 8 µM) was 0.241, the relative viability (NCI-H1650; first compound 0.08 µM) was 0.775 and the relative viability (NCI-H1650; first compound 0.8 µM) was 0.85. The relative viability (NCI-H1650; first compound 2.53 µM) was 1.02, the relative viability (NCI-H1650; first compound 8 µM) was 0.817 and the relative viability (LC-2-ad; first compound 0.08 µM) was 0.675. The relative viability (LC-2-ad; first compound 0.8 µM) was 0.728, the relative viability (LC-2-ad; first compound 2.53 µM) was 0.678 and the relative viability (LC-2-ad; first compound 8 µM) was 0.727. For the same molecule, the relative viability (NCI-H1915; first compound 0.08 µM) was 0.274, the relative viability (NCI-H1915; first compound 0.8 µM) was 0.254 and the relative viability (NCI-H1915; first compound 2.53 µM) was 0.243. It also gave a relative viability (NCI-H1915; first compound 8 µM) of 0.248, a relative viability (NCI-H23; first compound 0.08 µM) of 0.298 and a relative viability (NCI-H23; first compound 0.8 µM) of 0.257. For the same molecule, the relative viability (NCI-H23; first compound 2.53 µM) was 0.344, the relative viability (NCI-H23; first compound 8 µM) was 0.274 and the relative viability (RERF-LC-KJ; first compound 0.08 µM) was 0.846. It also gave a relative viability (RERF-LC-KJ; first compound 0.8 µM) of 0.956, a relative viability (RERF-LC-KJ; first compound 2.53 µM) of 1.02 and a relative viability (RERF-LC-KJ; first compound 8 µM) of 0.48. It also gave a relative viability (NCI-H1355; first compound 0.08 µM) of 0.73, a relative viability (NCI-H1355; first compound 0.8 µM) of 0.675 and a relative viability (NCI-H1355; first compound 2.53 µM) of 0.869. For the same molecule, the relative viability (NCI-H1355; first compound 8 µM) was 0.733, the relative viability (NCI-H1993; first compound 0.08 µM) was 1.16 and the relative viability (NCI-H1993; first compound 0.8 µM) was 1.07. For the same molecule, the relative viability (NCI-H1993; first compound 2.53 µM) was 1.21, the relative viability (NCI-H1993; first compound 8 µM) was 1.6 and the relative viability (NCI-H1793; first compound 0.08 µM) was 0.993. For the same molecule, the relative viability (NCI-H1793; first compound 0.8 µM) was 1.03, the relative viability (NCI-H1793; first compound 2.53 µM) was 1.12 and the relative viability (NCI-H1793; first compound 8 µM) was 1.05. It also gave a relative viability (BEN; first compound 0.08 µM) of 1.15, a relative viability (BEN; first compound 0.8 µM) of 1.37 and a relative viability (BEN; first compound 2.53 µM) of 1.13. It also gave a relative viability (BEN; first compound 8 µM) of 1.22, a relative viability (NCI-H1666; first compound 0.08 µM) of 0.749 and a relative viability (NCI-H1666; first compound 0.8 µM) of 0.779. The relative viability (NCI-H1666; first compound 2.53 µM) was 0.827, the relative viability (NCI-H1666; first compound 8 µM) was 0.713 and the relative viability (NCI-H460; first compound 0.08 µM) was 0.45. For the same molecule, the relative viability (NCI-H460; first compound 0.8 µM) was 0.431, the relative viability (NCI-H460; first compound 2.53 µM) was 0.421 and the relative viability (NCI-H460; first compound 8 µM) was 0.468. The relative viability (A-427; first compound 0.08 µM) was 0.765, the relative viability (A-427; first compound 0.8 µM) was 0.872 and the relative viability (A-427; first compound 2.53 µM) was 0.792. It also gave a relative viability (A-427; first compound 8 µM) of 0.524, a relative viability (NCI-H520; first compound 0.08 µM) of 0.39 and a relative viability (NCI-H520; first compound 0.8 µM) of 0.327. The relative viability (NCI-H520; first compound 2.53 µM) was 0.342, the relative viability (NCI-H520; first compound 8 µM) was 0.352 and the relative viability (NCI-H1648; first compound 0.08 µM) was 1. For the same molecule, the relative viability (NCI-H1648; first compound 0.8 µM) was 0.904, the relative viability (NCI-H1648; first compound 2.53 µM) was 1.14 and the relative viability (NCI-H1648; first compound 8 µM) was 1.21. The relative viability (NCI-H2228; first compound 0.08 µM) was 0.474, the relative viability (NCI-H2228; first compound 0.8 µM) was 0.886 and the relative viability (NCI-H2228; first compound 2.53 µM) was 0.735. It also gave a relative viability (NCI-H2228; first compound 8 µM) of 0.755.
